From article PMC8026479 (Cancer Chemotherapy and Pharmacology, 2021)

Experiments:
[1] = tested on: murine HSCs / total bone marrow cycling cells; parameters: method as in PMID 28446688; conditions: mouse, at concentrations giving maximum decrease in total bone marrow cycling cells; cited from earlier work
[2] = tested on: chemotherapy-induced myelosuppression in ES-SCLC patients; test: Study G1T28-03 Part 1 DLTs and myelosuppression endpoints (with topotecan); format: in vivo, human
Description: G1T28-03 (NCT02514447) was a multicentre Phase Ib/IIa study in patients with previously treated ES-SCLC [14]. Patients were aged ≥ 18 years and had histologically or cytologically confirmed ES-SCLC that had progressed during or after prior first- or second-line chemotherapy, measurable disease per RECIST version 1.1, an ECOG performance status of 0–2, and adequate organ function. Part 1 was a Phase Ib, open-label, dose-finding portion. Part 2 was a Phase IIa, randomized, double-blind, placebo-controlled portion. […] In Part 1 of the study, blood samples for PK analysis were collected at prespecified time points on Cycle 1 Day 1 and Cycle 1 Day 4 for all patients.

[3] = G1T28-03 Part 1, 200 mg/m2 + topotecan 0.75 mg/m2 (n = 4)
[4] = G1T28-03 Part 1, 200 mg/m2 + topotecan 1.25 mg/m2 (n = 3)
[5] = G1T28-03 Part 1, 200 mg/m2 + topotecan […]2 (n = 2)
[6] = G1T28-03 Part 1, 240 mg/m2 + topotecan 0.75 mg/m2 (n = 8)
[7] = G1T28-03 Part 1, 240 mg/m2 + topotecan 1.00 mg/m2 (n = 8)

CN1CCN(c2ccc(Nc3ncc4cc5n(c4n3)C3(CCCCC3)CNC5=O)nc2)CC1 [trilaciclib]
HSPCs arrested in the G1 phase [1]: ~100%
patients reporting DLTs ([2]; G1T28-03 Part 1, 200 mg/m2 + topotecan 0.75 mg/m2): 2 of 4
DSN in Cycle 1, mean (SD) [2, 3]: 0 (0.0) days
MAHE, event rate [2, 3]: 0.102 per week
Mean ANC Nadir in Cycle 1 [2, 3]: 0.98 (0.330) ×109/L
Occurrence of ESA administrations [2, 3]: 0 n (%)
Occurrence of FN [2, 3]: 0 n (%)
Occurrence of G-CSF administration [2, 3]: 1 (25.0) n (%)
Occurrence of Grade 3 or 4 decreased hemoglobin laboratory values [2, 3]: 2 (50.0) n (%)
Occurrence of Grade 3 or 4 decreased platelet count values [2, 3]: 2 (50.0) n (%)
Occurrence of Grade 3 or 4 hematologic laboratory abnormalities [2, 3]: 4 (100.0) n (%)
Occurrence of IV antibiotic use [2, 3]: 1 (25.0) n (%)
Occurrence of RBC transfusions on/after Week 5 [2, 3]: 2 (50.0) n (%)
Occurrence of SN [2, 3]: 1 (25.0) n (%)
Occurrence of infection SAEs [2, 3]: 1 (25.0) n (%)
Occurrence of platelet transfusions [2, 3]: 0 n (%)
Occurrence of pulmonary infection SAEs [2, 3]: 1 (25.0) n (%)
DSN in Cycle 1, mean (SD) [2, 4]: 8 (6.8) days
MAHE, event rate [2, 4]: 0.156 per week
Mean ANC Nadir in Cycle 1 [2, 4]: 0.47 (0.551) ×109/L
Occurrence of ESA administrations [2, 4]: 1 (33.3) n (%)
Occurrence of FN [2, 4]: 0 n (%)
Occurrence of G-CSF administration [2, 4]: 2 (66.7) n (%)
Occurrence of Grade 3 or 4 decreased hemoglobin laboratory values [2, 4]: 1 (33.3) n (%)
Occurrence of Grade 3 or 4 decreased platelet count values [2, 4]: 1 (33.3) n (%)
Occurrence of Grade 3 or 4 hematologic laboratory abnormalities [2, 4]: 3 (100.0) n (%)
Occurrence of IV antibiotic use [2, 4]: 1 (33.3) n (%)
Occurrence of RBC transfusions on/after Week 5 [2, 4]: 1 (33.3) n (%)
Occurrence of SN [2, 4]: 2 (66.7) n (%)
Occurrence of infection SAEs [2, 4]: 1 (33.3) n (%)
Occurrence of platelet transfusions [2, 4]: 1 (33.3) n (%)
Occurrence of pulmonary infection SAEs [2, 4]: 1 (33.3) n (%)
DSN in Cycle 1, mean (SD) [2, 5]: 14 (1.4) days
MAHE, event rate [2, 5]: 0.403 per week
Mean ANC Nadir in Cycle 1 [2, 5]: 0.20 (0.000) ×109/L
Occurrence of ESA administrations [2, 5]: 2 (100) n (%)
Occurrence of FN [2, 5]: 0 n (%)
Occurrence of G-CSF administration [2, 5]: 2 (100) n (%)
Occurrence of Grade 3 or 4 decreased hemoglobin laboratory values [2, 5]: 2 (100) n (%)
Occurrence of Grade 3 or 4 decreased platelet count values [2, 5]: 2 (100) n (%)
Occurrence of Grade 3 or 4 hematologic laboratory abnormalities [2, 5]: 2 (100.0) n (%)
Occurrence of IV antibiotic use [2, 5]: 2 (100) n (%)
Occurrence of RBC transfusions on/after Week 5 [2, 5]: 2 (100) n (%)
Occurrence of SN [2, 5]: 2 (100) n (%)
Occurrence of infection SAEs [2, 5]: 2 (100) n (%)
Occurrence of platelet transfusions [2, 5]: 0 n (%)
Occurrence of pulmonary infection SAEs [2, 5]: 1 (50.0) n (%)
DSN in Cycle 1, mean (SD) [2, 6]: 0 (0.0) days
MAHE, event rate [2, 6]: 0.037 per week
Mean ANC Nadir in Cycle 1 [2, 6]: 1.31 (0.650) ×109/L
Occurrence of ESA administrations [2, 6]: 1 (12.5) n (%)
Occurrence of FN [2, 6]: 0 n (%)
Occurrence of G-CSF administration [2, 6]: 4 (50.0) n (%)
Occurrence of Grade 3 or 4 decreased hemoglobin laboratory values [2, 6]: 3 (37.5) n (%)
Occurrence of Grade 3 or 4 decreased platelet count values [2, 6]: 0 n (%)
Occurrence of Grade 3 or 4 hematologic laboratory abnormalities [2, 6]: 7 (87.5) n (%)
Occurrence of IV antibiotic use [2, 6]: 1 (12.5) n (%)
Occurrence of RBC transfusions on/after Week 5 [2, 6]: 1 (12.5) n (%)
Occurrence of SN [2, 6]: 0 n (%)
Occurrence of infection SAEs [2, 6]: 0 n (%)
Occurrence of platelet transfusions [2, 6]: 0 n (%)
Occurrence of pulmonary infection SAEs [2, 6]: 0 n (%)
DSN in Cycle 1, mean (SD) [2, 7]: 3 (5.5) days
MAHE, event rate [2, 7]: 0.073 per week
Mean ANC Nadir in Cycle 1 [2, 7]: 0.63 (0.341) ×109/L
Occurrence of ESA administrations [2, 7]: 1 (12.5) n (%)
Occurrence of FN [2, 7]: 0 n (%)
Occurrence of G-CSF administration [2, 7]: 3 (37.5) n (%)
Occurrence of Grade 3 or 4 decreased hemoglobin laboratory values [2, 7]: 3 (37.5) n (%)
Occurrence of Grade 3 or 4 decreased platelet count values [2, 7]: 1 (12.5) n (%)
